Here are results for four compounds from patent US20020061836A1, “Methods for altering SXR activation using peptide mimetic HIV protease inhibitor SXR ligands” (priority 2000, published 2002).

Data set [1] has as its target T1, human SXR ligand binding domain (Homo sapiens, UniProt O75469).
T1 sequence (O75469 107-434 limits assumed): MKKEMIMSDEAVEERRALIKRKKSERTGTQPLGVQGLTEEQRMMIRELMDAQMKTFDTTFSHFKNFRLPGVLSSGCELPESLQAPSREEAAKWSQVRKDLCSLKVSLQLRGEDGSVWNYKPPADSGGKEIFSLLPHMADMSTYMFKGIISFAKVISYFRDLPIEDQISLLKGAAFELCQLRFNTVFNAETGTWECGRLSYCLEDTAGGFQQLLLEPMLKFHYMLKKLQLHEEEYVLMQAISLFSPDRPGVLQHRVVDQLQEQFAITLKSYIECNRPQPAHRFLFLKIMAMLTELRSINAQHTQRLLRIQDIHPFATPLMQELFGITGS
As to the kind of experiment: Gal-L-SXR (Gal-SXR) Gal4 reporter transient transfection assay in CV-1 cells. The text has this: Use of a standard model heterologous cell system to reconstitute SXR agonist and antagonist responsiveness allows SXR activity to be monitored in the absence of the metabolic events which may obscure the process being tested. Any suitable heterologous cell system may be used to test the activation of potential or known SXR nuclear receptor ligands, as long as the cells are capable of being transiently transfected with the appropriate DNA which expresses receptors, reporter genes, response elements, and the like. Cells which constitutively express one or more of the necessary genes may be used as well. Cell systems that are suitable for the transient expression of mammalian genes and which are amenable to maintenance in culture are well known to those skilled in the art. […] Suitable reporter gene constructs are well known to skilled workers in the fields of biochemistry and molecular biology. Activity of the reporter gene can be conveniently normalized to the internal control and the data plotted as fold activation relative to untreated cells.
The Gal4 reporter activity was normalized to the internal β-galactosidase control and the data plotted as fold activation relative to untreated cells. All transfections contained the Gal4 reporter and a β-galactosidase expression vector as an internal control.
(§1) Izbicka et al., Ann. Oncol.
(§2) Gal-PXR containing the ligand binding domain of mouse PXR (#AF031814) was obtained from Bruce Blumberg.
Transient Transffection Assays—CV-1 cells were grown and transfected as described.

The target of another data set is mouse PXR (Mus musculus, UniProt O54915). The following applies: 10 μM. Here is the method: as §2
(§3) After 24 hour exposure to the compounds, total RNA was prepared and analyzed by northern analysis using probes for MRP2 and the GAPDH control. […] CV-1 cells were transiently transfected with a Gal4 reporter and a vector expressing Gal4-fused to the ligand binding domain of human SXR (Gal-SXR).
CV-1 cells were transiently transfected with Gal-SXR as in FIG. 21 above. […] Fold activation was determined relative to untreated cells. […] CV-1 cells were transiently transfected with Gal-PXR as in FIG. 21 above. […] FIG. 26: Coactivator recruitment by various HIV protease inhibitors SXR. […] Specific binding was measured as described in the Materials and Methods. Error bars indicate the range of duplicate data points.

The subject of data set [2] is CV-1 cells.
In data set [3] the test system is cancer cell-lines and human xenografts. The note with it: variety of cancer cell-lines and human xenografts; read-out: IC50s for inhibition of proliferation; cited from earlier work. A general note: In xenograft studies the graft and the host belong to different species.
The next data set deals with T2, mouse CARβ (Mus musculus, UniProt O35627).
T2 sequence (O35627 1-358): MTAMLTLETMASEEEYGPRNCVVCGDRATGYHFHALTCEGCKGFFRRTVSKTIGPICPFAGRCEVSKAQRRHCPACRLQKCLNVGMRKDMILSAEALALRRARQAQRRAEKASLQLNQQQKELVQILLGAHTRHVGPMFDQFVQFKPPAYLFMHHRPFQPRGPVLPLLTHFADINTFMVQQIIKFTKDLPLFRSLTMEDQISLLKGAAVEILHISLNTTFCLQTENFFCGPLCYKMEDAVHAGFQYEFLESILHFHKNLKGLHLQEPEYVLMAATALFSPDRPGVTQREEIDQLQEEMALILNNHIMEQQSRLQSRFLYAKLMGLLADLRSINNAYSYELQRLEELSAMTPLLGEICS
As to the kind of experiment: Nuclear receptor specificity transfection assay / LXRE×3-TK-luc reporter with CARβ in CV-1 cells. The data set is classed as cell-based. The note with it: LXRE×3-TK-luc reporter; 5 μM androstanol or 50 nM ET-743.

The next data set has as its system MRP2 mRNA. In words: Northern analysis of MRP2 expression in primary human hepatocytes. The data set is classed as cell-based. The following applies: primary human hepatocytes; 2.5 μM hyperforin, 10 μM rifampicin, 10 μM SR12813; 24 hour. The procedure:
(§4) Northern Blot Analysis—Primary human hepatocytes were obtained from Clonetics (Walkersville, Md.) and cultured according to the vendors instructions. Cells were treated with the indicated compounds for 24 hours and total RNA was isolated using the Trizol reagent.
as §3
(§5) After 24 hour exposure to the compounds, total RNA was prepared and analyzed by northern analysis using probes for MDR1 and the GAPDH control.

The test system of another data set is CYP2C8 mRNA. The following applies: primary human hepatocytes; 10 μM (LG268 100 nM); 48 hours. The procedure:
Northern analysis was performed as follows. Primary human hepatocytes were obtained from Clonetics (Walkersville, Md.) and maintained in Hepatocyte Maintenance Medium supplemented with dexamethasone and insulin according to the vendors instructions. Cells were treated with the indicated SXR agonists for 48 hours and total RNA was isolated using the Trizol reagent.
as §4, §5

Data set [4] relates to LS180 human colon cancer cells. As to the kind of experiment: [14C]-paclitaxel efflux from pretreated LS180 cells. It is filed as cell-based. The note with it: LS180 cells induced 48 hours with 10 μM paclitaxel, 10 μM docetaxel or 100 nM LG268. The procedure: Taxane-induced drug efflux was measured using pretreated LS180 human colon cancer cells. The rate of drug efflux was measured. […] Individual data points are the means of triplicate determinations, error bars represent standard deviation and the lines are lines of regression. The slope of each line (rate of efflux) was compared to the slope obtained in the control (untreated) cells using an analysis of covariance. […] The entire experiment was performed three times with similar results. […] The cells were then incubated in media supplemented with 10 μM [^14C]-paclitaxel (4.9 μCi/umol, Moravek Biochemicals, Brea, Calif.) for 15 minutes. The uptake of ^14C-paclitaxel reached maximum levels at 10-12 minutes (data not shown). After 15 minutes, the cells were then rapidly centrifuged through silicone oil to remove all traces of extracellular radioactivity, resuspended in fresh media, and cell counts determined. At multiple time points over the next 10 minutes, triplicate aliquots of the cell suspension (approx. 1×10^5 cells/aliquot) were again centrifuged through silicon oil and the radioactivity in the cell pellet measured by quench-corrected liquid scintillation counting. The rate of [^14C]-paclitaxel efflux was determined as the slope of the [^14C]-paclitaxel versus time plots using all data. The slope for each inducer was compared to the slope obtained in the control (untreated) cells using an analysis of covariance.

Data set [5] has as its target SXR interaction with nuclear corepressor SMRT (Homo sapiens, UniProt O75469). As to the kind of experiment: Mammalian two-hybrid SXR-corepressor interaction assay. It is filed as cell-based. The note with it: CV-1 cells; 10 μM.
The test system of another data set is MDR1 mRNA. As to the kind of experiment: Northern analysis of MDR1 expression in human LS180 cells. The note with it: 10 μM, 24 hours. The data set is classed as cell-based. Here is the method: as §1, §4, §5
The subject of data set [6] is CV-1 cells. As to the kind of experiment: Potential cytotoxic effects at the concentrations and treatment times used. The following applies: at the indicated concentrations and treatment times.
The target of data set [7] is SXR coactivator interaction (SRC1, ACTR, GRIP, PBP) (Homo sapiens, UniProt O75469). The note with it: CV-1 cells; 10 μM docetaxel.

SMILES strings stand for the structures. Read-outs that look alike come from different tables or passages of the source.

Sequence of mouse PXR (O54915 143-430 limits assumed): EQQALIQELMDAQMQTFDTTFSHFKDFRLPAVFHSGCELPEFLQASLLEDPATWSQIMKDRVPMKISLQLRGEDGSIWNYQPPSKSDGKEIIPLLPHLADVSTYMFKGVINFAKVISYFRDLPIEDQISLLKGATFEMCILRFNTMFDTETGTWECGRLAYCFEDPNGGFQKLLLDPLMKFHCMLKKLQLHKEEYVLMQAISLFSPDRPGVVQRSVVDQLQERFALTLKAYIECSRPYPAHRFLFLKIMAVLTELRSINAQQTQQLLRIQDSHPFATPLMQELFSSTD

In the case of `CC(=O)[C@H]1[C@H](C#N)C[C@H]2[C@@H]3CC=C4C[C@@H](O)CC[C@]4(C)[C@H]3CC[C@@]21C`, in [1] (CV-1 cells, 2.5 μM hyperforin, 10 μM rifampicin, 3 μM ritonavir, 10 μM PCN), the “activation of Gal-SXR” value was “not”. Further, in [1] (CV-1 cells, 10 μM compound (LG268 100 nM), about 24 h), the “activation of Gal-L-SXR chimeric receptor” value is on record as “not”. Moreover, the “fold activation by cognate ligand (positive control)” value on mouse PXR is recorded as 23 fold.

For `COc1cc2c(cc1O)CCN[C@]21CS[C@@H]2c3c(OC(C)=O)c(C)c4c(c3[C@H](COC1=O)N1[C@@H]2[C@H]2c3c(cc(C)c(OC)c3O)C[C@@H]([C@@H]1O)N2C)OCO4` [ET-743, ecteinascidin-743], the potential cytotoxic effects result in the data set on CV-1 cells [2] is “minimal”. Also, the IC50 in data set [3] is 1 to 100 nM. In addition, the “inhibition of SR12813- and paclitaxel-induced activation of Gal-L-SXR” value in data set [1] (50 nM ET-743, 10 μM SR12813 or 10 μM paclitaxel) was “extremely potent and effective inhibitor”. Also, the “concentrations of maximal inhibition of SXR” value in data set [1] (wild-type SXR and Gal-L-SXR, 10 μM SR12813) lay in the range of 25 to 50 nM. Moreover, the “effect on transcriptional activity of CARβ” value on mouse CARβ was “no effect”.

As for `CCOP(=O)(OCC)C(=Cc1cc(C(C)(C)C)c(O)c(C(C)(C)C)c1)P(=O)(OCC)OCC` [SR12813], in the data set with MRP2 mRNA, the “MRP2 mRNA expression” value is “induced expression”. Besides, the “CYP2C8 mRNA expression” value in the data set on CYP2C8 mRNA is “less than that seen with other SXR agonists”.

For `CC(=O)O[C@@]12CO[C@@H]1C[C@H](O)[C@@]1(C)C(=O)[C@H](O)C3=C(C)[C@@H](OC(=O)[C@H](O)[C@@H](NC(=O)OC(C)(C)C)c4ccccc4)C[C@@](O)([C@@H](OC(=O)c4ccccc4)[C@H]21)C3(C)C` [docetaxel], the “rate of [14C]-paclitaxel efflux versus untreated cells” value in [4] is on record as “did not differ from controls”. Further, the “effect on SXR-SMRT interaction” value in data set [5] is recorded as “little effect”. In addition, in the data set on MDR1 mRNA, the “MDR1 mRNA expression” value is “did not induce”. Also, the potential cytotoxic effects result in the data set with CV-1 cells [6] is recorded as “minimal”. In addition, the “activation of Gal-L-SXR” value in [1] is recorded as “did not effectively activate”. Further, the “coactivator recruitment effect, less than that seen with paclitaxel” value in [7] is reported as 25-40%.
